The values below come from patent US12398154B2, “Azaquinazoline pan-KRas inhibitors” (Mirati Therapeutics, Inc., priority 2020, dated 2025).

Structures are written as SMILES. pIC50: −log10 of the molar value.

For one experiment, the target named is KRas G12R (Homo sapiens, UniProt P01116, G12R). Kind of experiment: biochemical.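 Further: TR-FRET displacement assay of compound binding to KRas, read after one hour at room temperature, potency from a four-parameter fit of percent-of-control values.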
Sequence of KRas G12R (P01116 1-169 isoform P01116-2 G12R): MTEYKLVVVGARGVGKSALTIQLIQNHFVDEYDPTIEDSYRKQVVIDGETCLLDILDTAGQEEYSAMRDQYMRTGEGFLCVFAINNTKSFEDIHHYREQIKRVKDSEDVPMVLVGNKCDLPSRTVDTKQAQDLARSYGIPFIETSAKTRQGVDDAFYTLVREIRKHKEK
For a further experiment, the system named is pERK in H460 cells. Nature of the experiment: Inhibition of KRas phosphorylation of ERK (Cisbio HTRF pERK assay). Particulars: Homo sapiens, NCI-H460, read-out: Inhibition (HTRF IC50) of KRas-mediated Phosphorylation of ERK, H460. A general note: TR-FRET usually uses a lanthanide donor and a delayed reading to cut background.
In a further experiment the test system is pERK in HCT116 cells. The experiment is described as above. The note with it: Homo sapiens, HCT-116, read-out: Inhibition (HTRF IC50) of KRas-mediated Phosphorylation of ERK, HCT116.
Another experiment relates to pERK in A549 cells. The description is as above. Particulars: Homo sapiens, A549, read-out: Inhibition (HTRF IC50) of KRas-mediated Phosphorylation of ERK, A549.
The next experiment addresses KRas G12V (Homo sapiens, UniProt P01116, G12V). Kind of experiment: biochemical.
The next experiment concerns pERK in H358 cells. Nature of the experiment: Inhibition of KRas phosphorylation of ERK (Cisbio HTRF pERK assay). The note with it: Homo sapiens, NCI-H358, read-out: Inhibition (HTRF IC50) of KRas-mediated Phosphorylation of ERK, H358.
In another experiment the target is KRas G12S (Homo sapiens, UniProt P01116, G12S). Nature of the experiment: biochemical.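 Further: TR-FRET displacement binding to KRas, read after one hour incubation at room temperature, IC50 from four-parameter fit of percent of control.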
Sequence of KRas G12S (P01116 1-169 isoform P01116-2 G12S): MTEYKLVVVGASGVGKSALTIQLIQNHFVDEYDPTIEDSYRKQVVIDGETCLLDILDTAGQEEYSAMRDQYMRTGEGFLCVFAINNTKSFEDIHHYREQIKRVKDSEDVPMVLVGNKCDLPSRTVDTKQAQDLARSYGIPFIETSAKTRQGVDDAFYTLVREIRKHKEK
Another experiment has as its target KRas G12A (Homo sapiens, UniProt P01116, G12A). Kind of experiment: biochemical.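 Further: binding to KRas measured by TR-FRET displacement after one hour at room temperature, IC50 from a four-parameter fit of percent-of-control values.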
Another experiment addresses KRas WT (Homo sapiens, UniProt P01116). Kind of experiment: biochemical.
The target in another experiment is KRas G12D (Homo sapiens, UniProt P01116, G12D). Kind of experiment: biochemical.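 Further: TR-FRET displacement binding assay on KRas, read after a one-hour incubation at room temperature, IC50 fitted from percent-of-control values.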
Sequence of KRas G12D (P01116 1-169 isoform P01116-2 G12D): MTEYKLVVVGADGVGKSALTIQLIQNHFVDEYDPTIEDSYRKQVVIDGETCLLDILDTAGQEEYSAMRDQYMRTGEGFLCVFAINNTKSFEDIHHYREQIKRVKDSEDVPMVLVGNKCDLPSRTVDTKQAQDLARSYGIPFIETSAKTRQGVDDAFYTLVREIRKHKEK
A further experiment has as its system pERK in PSN1 cells. Kind of experiment: Inhibition of KRas phosphorylation of ERK (Cisbio HTRF pERK assay). The note with it: Homo sapiens, PSN1, 3 h, read-out: Inhibition (HTRF IC50) of KRas-mediated Phosphorylation of ERK, PSN1.
The target in another experiment is KRas G12C (Homo sapiens, UniProt P01116, G12C). Kind of experiment: biochemical.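 Further: binding to KRas assessed by TR-FRET displacement after one hour incubation at room temperature, potency fitted from percent-of-control values.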
Sequence of KRas G12C (P01116 1-169 isoform P01116-2 G12C): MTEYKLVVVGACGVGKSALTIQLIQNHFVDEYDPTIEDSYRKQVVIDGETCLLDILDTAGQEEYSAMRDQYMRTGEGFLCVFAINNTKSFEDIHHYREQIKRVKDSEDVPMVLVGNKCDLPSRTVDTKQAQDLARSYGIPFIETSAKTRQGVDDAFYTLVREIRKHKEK
Another experiment concerns pERK in H727 cells. Nature of the experiment: Inhibition of KRas phosphorylation of ERK (Cisbio HTRF pERK assay). The note with it: Homo sapiens, NCI-H727, read-out: Inhibition (HTRF IC50) of KRas-mediated Phosphorylation of ERK, H727.
The subject of a further experiment is pERK in ASPC1 cells. Described as above. Particulars: Homo sapiens, ASPC1, read-out: Inhibition (HTRF IC50) of KRas-mediated Phosphorylation of ERK, AsPC-1.
Another experiment has as its system pERK in MKN1 cells. The experiment is described as above. Particulars: Homo sapiens, MKN-1, 3 h, read-out: Inhibition (HTRF IC50) of KRas-mediated Phosphorylation of ERK, MKN1.

Sequence of KRas G12A (P01116 1-169 isoform P01116-2 G12A): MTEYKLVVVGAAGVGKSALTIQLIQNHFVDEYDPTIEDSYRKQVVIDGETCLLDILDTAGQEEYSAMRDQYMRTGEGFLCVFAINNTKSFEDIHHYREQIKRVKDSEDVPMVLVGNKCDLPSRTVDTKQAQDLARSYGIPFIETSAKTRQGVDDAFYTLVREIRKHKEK
Sequence of KRas WT (P01116 1-169 isoform P01116-2): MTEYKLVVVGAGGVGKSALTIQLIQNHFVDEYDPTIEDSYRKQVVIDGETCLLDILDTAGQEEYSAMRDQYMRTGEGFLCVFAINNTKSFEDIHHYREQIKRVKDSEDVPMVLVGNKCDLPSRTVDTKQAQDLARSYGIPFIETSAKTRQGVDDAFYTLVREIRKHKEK
Sequence of KRas G12V (P01116 1-169 isoform P01116-2 G12V): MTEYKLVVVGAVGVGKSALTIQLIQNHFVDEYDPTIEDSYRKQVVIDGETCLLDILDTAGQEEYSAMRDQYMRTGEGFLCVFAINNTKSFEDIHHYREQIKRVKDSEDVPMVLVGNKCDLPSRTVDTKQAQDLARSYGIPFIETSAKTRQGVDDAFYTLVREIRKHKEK

`CCc1c(F)ccc2cc(O)cc(-c3ncc4c(N5CCC[C@@](C)(O)C5)nc(OC[C@]56CCCN5[C@H](COC(=O)N(C)C)CC6)nc4c3F)c12` [Example 313, ((3S,7aR)-7a-(((7-(8-ethyl-7-fluoro-3-hydroxynaphthalen-1-yl)-8-fluoro-4-((R)-3-hydroxy-3-methylpiperidin-1-yl)pyrido[4,3-d]pyrimidin-2-yl)oxy)methyl)hexahydro-1H-pyrrolizin-3-yl)methyl dimethylcarbamate]: the pIC50 – broadly, −log10 of the IC50, conventionally taken in molar units – against KRas G12R is at least 8.70; with pERK in H460 cells, 7.42; with pERK in HCT116 cells it was 7.38; with pERK in A549 cells, 7.42; against KRas G12V it was at least 8.70; with pERK in H358 cells it was 8.40. For the same molecule, the pIC50 against KRas G12S was at least 8.70; against KRas G12A it was at least 8.70; on KRas WT it was at least 8.70; against KRas G12D, at least 8.70; in the experiment on pERK in PSN1 cells it was 5.67; against KRas G12C it was at least 8.70. The pIC50 was 7.55 in the experiment with pERK in H727 cells, 7.89 with pERK in ASPC1 cells and 8.15 in the experiment with pERK in MKN1 cells.
Regarding `CCc1c(F)ccc2cc(O)cc(-c3ncc4c(N5CCC[C@@](C)(O)C5)nc(OC[C@@]56CCCN5[C@H](COC(=O)N(C)C)CC6)nc4c3F)c12` [Example 314, ((3S,7aS)-7a-(((7-(8-ethyl-7-fluoro-3-hydroxynaphthalen-1-yl)-8-fluoro-4-((R)-3-hydroxy-3-methylpiperidin-1-yl)pyrido[4,3-d]pyrimidin-2-yl)oxy)methyl)hexahydro-1H-pyrrolizin-3-yl)methyl dimethylcarbamate], the negative logarithm of the IC50 (pIC50) was at least 8.70 against KRas G12R; 7.85 in the experiment on pERK in H460 cells; 7.68 in the experiment on pERK in HCT116 cells; 7.72 in the experiment on pERK in A549 cells; at least 8.70 against KRas G12V; 8.70 in the experiment with pERK in H358 cells. Besides, the pIC50 against KRas G12S was at least 8.70; against KRas G12A it was at least 8.70; against KRas WT, at least 8.70; at KRas G12D, at least 8.70; in the experiment with pERK in PSN1 cells, 6.39; at KRas G12C, at least 8.70. In addition, the values for the pIC50 with pERK in H727 cells, in the experiment on pERK in ASPC1 cells and in the experiment with pERK in MKN1 cells were 7.68, 8.05 and 8.52, respectively.
On to `CCc1c(F)ccc2cc(O)cc(-c3ncc4c(N5CCCCCC5)nc(OC[C@@]56CCCN5C[C@H](F)C6)nc4c3F)c12` [Example 317, 4-(4-(azepan-1-yl)-8-fluoro-2-(((2R,7aS)-2-fluorohexahydro-1H-pyrrolizin-7a-yl)methoxy)pyrido[4,3-d]pyrimidin-7-yl)-5-ethyl-6-fluoronaphthalen-2-ol], for which the pIC50 is at least 8.70 at KRas G12R; 6.54 with pERK in H460 cells; 7.01 with pERK in HCT116 cells; 6.71 in the experiment with pERK in A549 cells; at least 8.70 at KRas G12V; 6.01 with pERK in H358 cells. The pIC50 on KRas G12S is at least 8.70; against KRas G12A, at least 8.70; on KRas WT, at least 8.70; on KRas G12D, at least 8.70; in the experiment on pERK in PSN1 cells, 5.41; against KRas G12C, at least 8.70. Also, the pIC50 in the experiment with pERK in H727 cells was 7.34; in the experiment with pERK in ASPC1 cells, 7.40; in the experiment with pERK in MKN1 cells, 7.70.
For the molecule `CCc1c(F)ccc2cc(O)cc(-c3ncc4c(N5CCOC[C@@](C)(O)C5)nc(OCC5(CN6CCCC6)CC5)nc4c3F)c12` [Example 321, (S)-4-(7-(8-ethyl-7-fluoro-3-hydroxynaphthalen-1-yl)-8-fluoro-2-((1-(pyrrolidin-1-ylmethyl)cyclopropyl)methoxy)pyrido[4,3-d]pyrimidin-4-yl)-6-methyl-1,4-oxazepan-6-ol], the pIC50 at KRas G12R was at least 8.70; with pERK in H460 cells, 7.15; with pERK in HCT116 cells it was 7.41; with pERK in A549 cells, 7.00; against KRas G12V, at least 8.70; with pERK in H358 cells, 8.15. In addition, the pIC50 at KRas G12S is at least 8.70; at KRas G12A, at least 8.70; at KRas WT, at least 8.70; against KRas G12D, at least 8.70; in the experiment with pERK in PSN1 cells, 5.11; against KRas G12C, at least 8.70. Moreover, the pIC50 with pERK in H727 cells was 7.52; in the experiment with pERK in ASPC1 cells, 7.80; with pERK in MKN1 cells it was 8.52.
Turning to `CCc1c(F)ccc2cc(O)cc(-c3ncc4c(N5CCCn6nc(C(=O)N(C)C)cc6C5)nc(OC[C@@]56CCCN5C[C@H](F)C6)nc4c3F)c12` [Example 326, 5-(7-(8-ethyl-7-fluoro-3-hydroxynaphthalen-1-yl)-8-fluoro-2-(((2R,7aS)-2-fluorohexahydro-1H-pyrrolizin-7a-yl)methoxy)pyrido[4,3-d]pyrimidin-4-yl)-N,N-dimethyl-5,6,7,8-tetrahydro-4H-pyrazolo[1,5-a][1,4]diazepine-2-carboxamide], the pIC50 was at least 8.70 against KRas G12R; 6.60 with pERK in H460 cells; 6.56 with pERK in HCT116 cells; 6.86 in the experiment on pERK in A549 cells; at least 8.70 against KRas G12V; 7.74 in the experiment on pERK in H358 cells. In addition, the pIC50 against KRas G12S is at least 8.70; against KRas G12A, at least 8.70; against KRas WT, at least 8.70; on KRas G12D it was at least 8.70; with pERK in PSN1 cells, at most 5.00; against KRas G12C, at least 8.70. The results for the pIC50 with pERK in H727 cells, with pERK in ASPC1 cells and in the experiment on pERK in MKN1 cells were 7.59, 8.00 and 8.10, respectively.
As for `CCc1c(F)ccc2cc(O)cc(-c3ncc4c(N5CCCC6(CNS(=O)(=O)N6)C5)nc(OC[C@@]56CCCN5C[C@H](F)C6)nc4c3F)c12` (stereo partly drawn) [Example 330, 7-(7-(8-ethyl-7-fluoro-3-hydroxynaphthalen-1-yl)-8-fluoro-2-(((2R,7aS)-2-fluorohexahydro-1H-pyrrolizin-7a-yl)methoxy)pyrido[4,3-d]pyrimidin-4-yl)-2-thia-1,3,7-triazaspiro[4.5]decane 2,2-dioxide], the pIC50 against KRas G12R is at least 8.70; with pERK in H460 cells it was 7.28; in the experiment with pERK in HCT116 cells, 7.24; with pERK in A549 cells, 7.08; on KRas G12V, at least 8.70; in the experiment with pERK in H358 cells, 7.96. The pIC50 was at least 8.70 on KRas WT; at least 8.70 at KRas G12D; 6.52 in the experiment on pERK in PSN1 cells; at least 8.70 against KRas G12C; 7.21 in the experiment with pERK in H727 cells; 7.54 in the experiment with pERK in ASPC1 cells. Besides, the pIC50 in the experiment with pERK in MKN1 cells is 8.10.
As to `CCc1c(F)ccc2cc(O)cc(-c3ncc4c(N5CCC[C@@](C)(O)C5)nc(OC[C@@]56CCCN5[C@@H](COC(=O)N(C)C)CC6)nc4c3F)c12` [Example 512, ((3R,7aS)-7a-(((7-(8-ethyl-7-fluoro-3-hydroxynaphthalen-1-yl)-8-fluoro-4-((R)-3-hydroxy-3-methylpiperidin-1-yl)pyrido[4,3-d]pyrimidin-2-yl)oxy)methyl)hexahydro-1H-pyrrolizin-3-yl)methyl dimethylcarbamate], the pIC50 against KRas G12R was 8.10; in the experiment on pERK in H460 cells it was 6.89; with pERK in HCT116 cells, 6.54; in the experiment with pERK in A549 cells, 7.17; at KRas G12V it was 8.30; with pERK in H358 cells, 7.28. Moreover, the pIC50 was 8.30 at KRas G12D; 5.55 in the experiment with pERK in PSN1 cells; 7.10 in the experiment with pERK in H727 cells; 7.26 in the experiment with pERK in ASPC1 cells; 7.85 in the experiment on pERK in MKN1 cells.
